In patent US10751396B2, “Early hyperlipidemia promotes endothelial activation via a caspase-1-sirtuin 1 pathway” (Temple University—Of The Commonwealth System of Higher …, priority 2015, dated 2020):
Blank lines part the entries; values can stand above or below the compound they belong to. Residues, ends and D or L forms follow the SMILES beside them. *: point of attachment. Cbz = O=C(OCc1ccccc1)*

Experiments:
Assay type in all cases: cell-based, human
caspase-1 = assay: Caspase-1 activity assay (FAM-YVAD-FMK, flow cytometry) in HAECs; conditions: for oxLDL-induced caspase-1 activation with ROS inhibitors: Allopurinol 1 mmol/L, Apocynin 100 μM added 1 hour before oxLDL (100 μg/mL) 6 hours
Procedure: (§1) Active caspase-1 level was determined with APO LOGIX kit (Cell Tech., Mountain View, Calif.). The kit contains a carboxyfluorescein (FAM) [Excitation/Emission (nm):490/520]-labeled peptide fluoromethyl ketone (FMK) caspase-1 inhibitor (FAM-YVAD-FMK), which irreversibly binds to active caspase-1. All procedures were performed according to the manufacturer's instruction. Briefly, HAECs (≤passage 9) were cultured in 6-well plates and serum starved overnight to quiescent the cells before treatment. Next day, HAECs were treated with indicated stimuli for 6 hr. Cells were then digested by trypsin-EDTA and suspended at 1×10^6 cells/ml. 150 μl of cell suspension were incubated at 37° C. with 1× FAM-YVAD-FMK for 1 hour then washed with 1× washing buffer. Unfixed caspase-1 stained cells were then incubated with 7-aminoactinomycin D (7-AAD; cell membrane integrity marker) (BD Pharmingen, San Diego, Calif.) for no more than 10 min before analysis. The Calibur flow cytometer (BD Biosciences, San Jose, Calif.) was used to determine caspase-1 active (Caspase-1^+) and 7-AAD^+ cells. Data were analyzed with the FlowJo software (Tree Star, Ashland, Oreg.).
Active caspase-1 levels were determined with an APO LOGIX kit (Cell Technology, Mountain View, Calif.). The kit contained a carboxyfluorescein (FAM) (excitation/emission (nm): 490/520)-labeled peptide fluoromethyl ketone (FMK) caspase-1 inhibitor (FAM-YVAD-FMK), which irreversibly binds to active caspase-1. The procedures were performed according to the manufacturer's instructions. HAECs were cultured in 6-well dishes and serum-starved overnight to ensure quiescence of the cells before treatment. The next day, HAECs were treated with the indicated stimuli for 6 h. Cells were harvested and suspended at 1×10^6 cells/ml. The cell suspension (150 μl) was incubated in 37° C. with 1× FAM-YVAD-FMK for 1 h. After being washed with 1× washing buffer, the cells were fixed with fixative buffer and stored in 4° C. for up to 24 h. To determine the cell membrane integrity, the unfixed cells were stained with 7-AAD (Pharmingen) (0.25 μg/test) and incubated for no more than 10 min before analysis.
All flow cytometric data were analyzed by using the FlowJo software (Tree Star, Ashland, Oreg.). The uncompensated data were collected from the flow cytometer (either FACSCalibur flow cytometer or LSRII flow cytometer; BD Biosciences). Forward and side scatter gates were used to select live cell populations from clumps and debris. The positive gating was determined by its matched IgG control, and single staining was used to determine the compensation parameter. Different gates were established to analyze the data according to cell size as described in our figures.

Sirt1 = Sirt1 cleavage in oxLDL-treated HAECs by Western blot; conditions: agent added 1 hour before oxLDL (100 μg/mL, 24 hours)
Excerpt: FIG. 8, comprising FIG. 8A through FIG. 8C, depicts experimental results showing hyperlipidemia/dyslipidemia decreases sirtuin 1 (Sirt1) expression in ApoE^−/− mouse aorta and induces Sirt1 cleavage in human aortic endothelial cells (ECs) through caspase-1 (casp-1) activation. FIG. 8A depicts Casp-1 deficiency results in Sirt1 accumulation in mouse aorta in ApoE^−/−/Casp-1^−/− mice. ApoE^−/− mice and ApoE^−/−/Casp-1^−/− mice were fed with a high fat (HF) diet for 3 weeks. Mouse aortic tissues were collected for uncleaved Sirt1 protein expression analysis by Western blot with the specific antibody (left panel). The quantification of Sirt1 expression in the Western blot was presented after normalized with the expression of β-actin in the same sample (right panel). FIG. 8B depicts oxidized low-density lipoprotein (OxLDL) induces Sirt1 cleavage in human aortic endothelial cells (HAECs). HAECs were cultured and treated with oxLDL (100 μg/mL) for 24 hours. […] The protein lysates were collected, and cleaved-Sirt1 expression was determined by Western blot with anti-Sirt1 antibody. The relative changes of Sirt1 expression normalized by β-actin (ratios) were calculated based on the ratios of Sirt1 expression levels in treated samples over that in nontreated samples. […]

[1] = test system: alpha actin and calponin RNA transcripts in HAVSMCs; assay: Contractile marker RNA in HAVSMCs exposed to uremic serum (quantitative RT-PCR); conditions: HAVSMC, 10% pooled CKD sera 24 hours, compared to non-treated controls
Procedure: FIG. 29 depicts experimental results showing the exposure of human aortic vascular smooth muscle cells (HAVSMCs) to uremic serum decreases the expression of contractile marker RNA transcripts, which is reversed by the inhibition of caspase-1. HAVSMCs were grown to sub-confluence and were serum starved for 24 hours and exposed to 10% pooled uremic sera from CKD patients (CKD PS) with and without Caspase-1 Inhibitor (Casp1 inh) for another 24 hours. The RNA was extracted, was reverse transcribed into cDNA, and the expression of smooth muscle contractile marker RNA transcripts (alpha actin and calponin) was measured by quantitative RT-PCR using the Applied Biosystems 7500, Taqman primers and probes. The relative quantification of gene RNA expression is presented after being normalized with the expression of a house-keeping gene. *P value<0.005.
Blood samples were obtained from 6 healthy donors with normal kidney function and 20 patients with end stage renal disease who were on hemodialysis. […]
Total RNA from cultured cells was extracted using the RNeasy kit (Qiagen, Valencia, Calif.), and cDNA was synthesized with the VILO first-strand synthesis system (Invitrogen, Grand Island, N.Y.). […] Relative gene expression levels were calculated after normalization with the internal control eukaryotic 18S gene using the 2^−deltadeltaCt method, where Ct is the threshold value.

HAECs = assay: Caspase-1/7-AAD co-staining for pyroptosis in HAECs; conditions: HAECs, 6-hour stimulation; oxLDL 100 μg/mL, LPA 100 μM, LPC 15 μM
Procedure: FIG. 7, comprising FIG. 7A through FIG. 7D, depicts experimental results showing Oxidized low-density lipoprotein (oxLDL) and its components induce caspase-1 (casp-1) activation in human aortic endothelial cells (HAECs) via a reactive oxygen species (ROS)-mediated p-athway. FIG. 7A depicts pyroptotic cell death in HAECs caused by activation of casp-1 induced by oxLDL and its components. HAECs were cultured and treated with low-density lipoprotein (LDL; 100 μg/mL), oxLDL (100 μg/mL), oxLDL-derivatives lysophosphatidic acid (LPA, 100 μM), or lysophosphatidylcholine (LPC, 15 μM) as indicated for 6 hours. Casp-1 activity was determined by a commercial kit, and 7-aminoactinomycin D (7-AAD) fluorescence dye was used to determine the cell membrane integrity. Casp-1^+/7-AAD^+ cells were gated as pyrototic cells (Q3), casp-1^+ single positive cells (Q2) were gated as inflammatory cells, and 7-AAD^+ single positive cells (Q4) were gated as necrotic cells. FIG. 7B depicts ROS levels in pyroptotic cells. ROS levels were determined by dihydroethidium (DHE) fluorescence dye staining, and the mean fluorescence intensity (MFI) of DHE^+ cell fraction was determined. […] Allopurinol (1 mmol/L) and Apocynin (100 μM) were added 1 hour before oxLDL treatment. HAECs were then treated with oxLDL (100 μg/mL) for 6 hours and stained for caspase-1 activity. FIG. 7D depicts mRNA upregulation of inflammasome components, including NLRP1 (Nod-like receptor protein 1), NLRP3 (Nod-like receptor 3), PYCARD (or ASC, inflammasome adaptor apoptosis-associated speck-like protein containing a CARD), caspase-1, and IL-1β (interleukin-1β) in HAECs treated with oxLDL. Data are expressed as mean±SE. *P<0.05, changes with statistical significance.
as §1
Active caspase-1 levels were determined with an APO LOGIX kit (Cell Technology, Mountain View, Calif.). The kit contained a carboxyfluorescein (FAM) (excitation/emission (nm): 490/520)-labeled peptide fluoromethyl ketone (FMK) caspase-1 inhibitor (FAM-YVAD-FMK), which irreversibly binds to active caspase-1. The procedures were performed according to the manufacturer's instructions. HAECs were cultured in 6-well dishes and serum-starved overnight to ensure quiescence of the cells before treatment. The next day, HAECs were treated with the indicated stimuli for 6 h. Cells were harvested and suspended at 1×10^6 cells/ml. […]

Compound: Oc1ncnc2[nH]ncc12 [Allopurinol]
- oxLDL-induced caspase-1 activation with ROS inhibitors (caspase-1): attenuation of oxLDL-induced caspase-1 activation

Compound: COc1cc(C(C)=O)ccc1O [Apocynin]
- oxLDL-induced caspase-1 activation with ROS inhibitors (caspase-1): attenuation of oxLDL-induced caspase-1 activation

Compound: CC(C)C[C@@H](C=O)NC(=O)[C@H](CC(C)C)NC(=O)[C@H](CC(C)C)NC(=O)OCc1ccccc1 [MG-132] (Cbz-Leu-Leu-Leu-aldehyde)
- oxLDL-induced Sirt1 cleavage with inhibitor (Sirt1): inhibited

- caspase-1 activation after VEGFR-2 inhibition (caspase-1; HAECs pretreated with SU1498, then LPC (30 μM) 6 h after overnight serum starvation): increases caspase-1 activation
Compound: CC(C)c1cc(/C=C(\C#N)C(=O)NCCCc2ccccc2)cc(C(C)C)c1O [SU1498]

Compound: COC(=O)C[C@H](NC(=O)[C@H](C)NC(=O)[C@@H](NC(=O)[C@H](Cc1ccc(O)cc1)NC(=O)OCc1ccccc1)C(C)C)C(=O)CF [Z-YVAD-FMK]
- relative quantification of alpha-actin RNA [1]: 0.588
- relative quantification of calponin RNA [1]: 0.601

Compound: RQIKIWFQNRRMKWKKGYRDNLLFGAEIITNGFHSC (N-terminal protein transduction sequence; listed as Homo sapiens) [NC-Sirt1]
- oxLDL-induced Sirt1 cleavage with inhibitor (Sirt1): dose-dependently decreases

- caspase-1 activation in larger size of HAECs (caspase-1; 6 h, oxLDL (100 μM), LPA (30 μM), LPC (30 μM), large FSC gate): 54.4%
- caspase-1 activation in smaller size of HAECs (caspase-1; 6 h, oxLDL (100 μM), LPA (30 μM), LPC (30 μM), small FSC gate): 25.2%
Compound: mono-acylsn-glycero-3-phosphate [LPA]
- induction of inflammation, pyroptosis and necrosis (caspase-1/7-AAD gating) (HAECs): induced inflammation, inflammatory cell death (pyroptosis), and necrosis
